Reference: patent publication US20070117743A1, “New antitumoral compounds” (priority 2003, published 2007)

What was measured:
Type in all cases: cell-based, human
A-549 = assay: SRB colorimetric assay of cell growth and viability, A-549; settings: 48 hours exposure; for GI50: read-out: GI50 A-549; for CC50: read-out: LC50 A-549
SK-MEL-28 = assay: SRB colorimetric assay of cell growth and viability, SK-MEL-28; settings: 48 hours exposure; for CC50: read-out: LC50 MEL-28
HT-29 = assay: SRB colorimetric assay of cell growth and viability, HT-29; settings: 48 hours exposure; for GI50: read-out: GI50 HT-29; for CC50: read-out: LC50 HT-29
LoVo = assay: SRB colorimetric assay of cell growth and viability, LoVo; settings: 48 hours exposure; for CC50: read-out: LC50 LOVO
DU-145 = assay: SRB colorimetric assay of cell growth and viability, DU-145; settings: 48 hours exposure
LNCaP = assay: SRB colorimetric assay of cell growth and viability, LNCaP; settings: 48 hours exposure; for GI50: read-out: GI50 LN-caP; for CC50: read-out: LC50 LN-caP
SK-BR-3 = assay: SRB colorimetric assay of cell growth and viability, SK-BR-3; settings: 48 hours exposure
IGROV-1 = assay: SRB colorimetric assay of cell growth and viability, IGROV-1; settings: 48 hours exposure
IGROV-ET = assay: SRB colorimetric assay of cell growth and viability, IGROV-ET; settings: 48 hours exposure; for CC50: read-out: LC50 IGROV-ET
HeLa = assay: SRB colorimetric assay of cell growth and viability, HeLa; settings: 48 hours exposure; for CC50: read-out: LC50 HELA
HeLa-APL = assay: SRB colorimetric assay of cell growth and viability, HeLa-APL; settings: 48 hours exposure; for CC50: read-out: LC50 HELA-APL
K-562 = assay: SRB colorimetric assay of cell growth and viability, K-562; settings: 48 hours exposure; for CC50: read-out: LC50 K-562
PANC-1 = assay: SRB colorimetric assay of cell growth and viability, PANC-1; settings: 48 hours exposure; for CC50: read-out: LC50 PANC-1

Compound: C/C=C1\NC(=O)[C@H](Cc2ccccc2)NC(=O)[C@@H](C(C)C)NC(=O)[C@@H]([C@@H](C)CC)NC(=O)[C@H](NC(=O)[C@H](NC(=O)[C@H](CCCN)NC(=O)[C@H]2CCCN2C(=O)[C@H](NC(=O)[C@@H](NC(=O)[C@@H](NC(=O)[C@H](NC(=O)Cc2cc(F)cc(F)c2)C(C)C)[C@@H](C)O)C(C)C)C(C)C)[C@@H](C)CC)[C@@H](C)OC(=O)[C@H](C(C)C)NC1=O [Compound 22, [3,5-dFPhAc^14]-KF]
- TGI A-549 (A-549): 2.16E−06 Molar
- GI50 (A-549): 1.17 µM
- CC50 (A-549): 3.99 µM
- GI50 (SK-MEL-28): 2.5 µM
- TGI MEL-28 (SK-MEL-28): 6.58E−06 Molar
- CC50 (SK-MEL-28): 6.58 µM
- TGI HT-29 (HT-29): 1.94E−06 Molar
- GI50 (HT-29): 0.888 µM
- CC50 (HT-29): 4.25 µM
- GI50 (LoVo): 0.288 µM
- TGI LOVO (LoVo): 1.06E−06 Molar
- CC50 (LoVo): 3.11 µM
- GI50 (DU-145): 1.43 µM
- LC50 (concentration causing 50% net cell kill) (DU-145): 6.58 µM
- TGI DU-145 (DU-145): 6.58E−06 Molar
- TGI LN-caP (LNCaP): 6.58E−06 Molar
- GI50 (LNCaP): 1.64 µM
- CC50 (LNCaP): 6.58 µM
- GI50 (SK-BR-3): 0.464 µM
- LC50 (SK-BR-3): 3.64 µM
- TGI SK-BR-3 (SK-BR-3): 1.45E−06 Molar
- GI50 (IGROV-1): 0.98 µM
- LC50 (concentration causing 50% net cell killing) (IGROV-1): 4.57 µM
- TGI IGROV (IGROV-1): 2.12E−06 Molar
- GI50 (IGROV-ET): 1.07 µM
- TGI IGROV-ET (IGROV-ET): 2.32E−06 Molar
- CC50 (IGROV-ET): 5.01 µM
- GI50 (HeLa): 1.29 µM
- TGI HELA (HeLa): 3.28E−06 Molar
- CC50 (HeLa): 6.58 µM
- GI50 (HeLa-APL): 1.96 µM
- TGI HELA-APL (HeLa-APL): 6.58E−06 Molar
- CC50 (HeLa-APL): 6.58 µM
- GI50 (K-562): 6.58 µM
- TGI K-562 (K-562): 6.58E−06 Molar
- CC50 (K-562): 6.58 µM
- GI50 (PANC-1): 5.45 µM
- TGI PANC-1 (PANC-1): 6.58E−06 Molar
- CC50 (PANC-1): 6.58 µM

Compound: C/C=C1\NC(=O)[C@H](Cc2ccccc2)NC(=O)[C@@H](C(C)C)NC(=O)[C@@H]([C@@H](C)CC)NC(=O)[C@H](NC(=O)[C@H](NC(=O)[C@H](CCCN)NC(=O)[C@H]2CCCN2C(=O)[C@H](NC(=O)[C@H](NC(=O)[C@@H](NC(=O)[C@H](NC(=O)CCCC(C)C)C(C)C)[C@@H](C)O)C(C)C)C(C)C)[C@@H](C)CC)[C@@H](C)OC(=O)[C@H](C(C)C)NC1=O [Compound 46, [D-Val^11]-KF]
- TGI A-549 (A-549): 6.77E−06 Molar
- GI50 (A-549): 3.67 µM
- CC50 (A-549): ≥ 6.77 µM
- GI50 (SK-MEL-28): ≥ 6.77 µM
- TGI MEL-28 (SK-MEL-28): 6.77E−06 Molar
- CC50 (SK-MEL-28): ≥ 6.77 µM
- TGI HT-29 (HT-29): 6.77E−06 Molar
- GI50 (HT-29): 2.5 µM
- CC50 (HT-29): ≥ 6.77 µM
- GI50 (LoVo): 1.2 µM
- TGI LOVO (LoVo): 2.30E−06 Molar
- CC50 (LoVo): 4.4 µM
- GI50 (DU-145): 2.43 µM
- LC50 (concentration causing 50% net cell kill) (DU-145): ≥ 6.77 µM
- TGI DU-145 (DU-145): 6.77E−06 Molar
- TGI LN-caP (LNCaP): 6.77E−06 Molar
- GI50 (LNCaP): 2.42 µM
- CC50 (LNCaP): ≥ 6.77 µM
- GI50 (SK-BR-3): 1.35 µM
- LC50 (SK-BR-3): 5.62 µM
- TGI SK-BR-3 (SK-BR-3): 2.75E−06 Molar
- GI50 (IGROV-1): 1.5 µM
- LC50 (concentration causing 50% net cell killing) (IGROV-1): ≥ 6.77 µM
- TGI IGROV (IGROV-1): 3.55E−06 Molar
- GI50 (IGROV-ET): 1.67 µM
- TGI IGROV-ET (IGROV-ET): 3.62E−06 Molar
- CC50 (IGROV-ET): ≥ 6.77 µM
- GI50 (HeLa): 4.61 µM
- TGI HELA (HeLa): 6.77E−06 Molar
- CC50 (HeLa): ≥ 6.77 µM
- GI50 (HeLa-APL): 3.3 µM
- TGI HELA-APL (HeLa-APL): 6.77E−06 Molar
- CC50 (HeLa-APL): ≥ 6.77 µM
- GI50 (K-562): 3.04 µM
- TGI K-562 (K-562): 6.77E−06 Molar
- CC50 (K-562): ≥ 6.77 µM
- GI50 (PANC-1): 3.12 µM
- TGI PANC-1 (PANC-1): 6.77E−06 Molar
- CC50 (PANC-1): ≥ 6.77 µM

Compound: C/C=C1\NC(=O)[C@H](Cc2ccccc2)NC(=O)[C@@H](C(C)C)NC(=O)[C@@H]([C@@H](C)CC)NC(=O)[C@H](NC(=O)[C@H](NC(=O)[C@H](CCCN)NC(=O)[C@H]2CCCN2C(=O)[C@H](NC(=O)[C@@H](NC(=O)[C@@H](NC(=O)[C@H](NC(=O)c2ccc(C(F)(F)F)cc2)C(C)C)[C@@H](C)O)C(C)C)C(C)C)[C@@H](C)CC)[C@@H](C)OC(=O)[C@H](C(C)C)NC1=O [Compound 21, [p-CF3Bza^14]-KF]
- TGI A-549 (A-549): 4.06E−07 Molar
- GI50 (A-549): 0.146 µM
- CC50 (A-549): 1.68 µM
- GI50 (SK-MEL-28): 0.897 µM
- TGI MEL-28 (SK-MEL-28): 1.85E−06 Molar
- CC50 (SK-MEL-28): 3.8 µM
- TGI HT-29 (HT-29): 2.59E−07 Molar
- GI50 (HT-29): 0.114 µM
- CC50 (HT-29): 0.585 µM
- GI50 (LoVo): 0.0917 µM
- TGI LOVO (LoVo): 1.92E−07 Molar
- CC50 (LoVo): 0.404 µM
- GI50 (DU-145): 0.241 µM
- LC50 (concentration causing 50% net cell kill) (DU-145): 3.28 µM
- TGI DU-145 (DU-145): 1.22E−06 Molar
- TGI LN-caP (LNCaP): 1.30E−06 Molar
- GI50 (LNCaP): 0.339 µM
- CC50 (LNCaP): 3.52 µM
- GI50 (SK-BR-3): 0.111 µM
- LC50 (SK-BR-3): 0.543 µM
- TGI SK-BR-3 (SK-BR-3): 2.46E−07 Molar
- GI50 (IGROV-1): 0.177 µM
- LC50 (concentration causing 50% net cell killing) (IGROV-1): 3.45 µM
- TGI IGROV (IGROV-1): 7.22E−07 Molar
- GI50 (IGROV-ET): 0.169 µM
- TGI IGROV-ET (IGROV-ET): 7.61E−07 Molar
- CC50 (IGROV-ET): 2.83 µM
- GI50 (HeLa): 0.319 µM
- TGI HELA (HeLa): 1.28E−06 Molar
- CC50 (HeLa): 3.91 µM
- GI50 (HeLa-APL): 0.504 µM
- TGI HELA-APL (HeLa-APL): 1.48E−06 Molar
- CC50 (HeLa-APL): 3.67 µM
- GI50 (K-562): 6.5 µM
- TGI K-562 (K-562): 6.50E−06 Molar
- CC50 (K-562): 6.5 µM
- GI50 (PANC-1): 1.3 µM
- TGI PANC-1 (PANC-1): 3.11E−06 Molar
- CC50 (PANC-1): 6.5 µM
